From patent US10272055B2, “Therapeutic compounds and methods” (Regents of the University of Minnesota, priority 2014, dated 2019) come the findings set out here.

SMILES strings stand for the structures. Entries after “also recorded” stand apart in the source; their conditions may differ.

Series [1] relates to MDA-MB-231. As to the kind of experiment: MTT growth assay, MDA-MB-231 line. The format is cell-based. The conditions noted are these: MTT assay at 24 hours, 10% FBS. On the procedure:
FIG. 30 illustrates HBB inhibits proliferation of MCF7 and MDA-MB-231 lines. Cells were plated in complete media in the presence of serum (10% FBS) and cultured at 37° C. with 5% CO2 and treated with HBB or DMSO vehicle. Growth was measured at 24 hours by MTT assay. Results were converted to percent growth of control and represented as mean±S.E. (n=8).
(In general: Tetrazolium dyes change colour on reduction, which living cells bring about.)

In series [2] the test system is AMPK. As to the kind of experiment: AMPK phosphorylation Western blot in MCF7. In kind it is cell-based. The procedure:
Western blotting analysis was performed in triplicate.
Cells were plated in complete media in the presence of serum (10% FBS) and cultured at 37° C. with 5% CO2 and treated with biguanides for 6 hours before harvesting. Total protein was extracted and analyzed by Western-blotting with GAPDH as an internal control.
Cells were plated in complete media in the presence of serum (10% FBS) and cultured at 37° C. with 5% CO2 and treated with 14,15-EET or EtOH control for 24 hours before harvesting. Total protein was extracted and analyzed by Western-blotting with GAPDH as an internal control.
In general terms: A western blot detects proteins with antibodies after separation by electrophoresis.

Series [3] relates to STAT3. As to the kind of experiment: STAT3 phosphorylation Western blot in MCF7. The format is cell-based. The procedure:
Western blotting analysis was performed (C=control, M=metform and H=HBB).
Total protein was extracted and analyzed by Western-blotting with GAPDH as an internal control.

The test system of series [4] is MCF-7 xenograft. As to the kind of experiment: MCF-7 xenograft in nude mice. The conditions noted are these: HBB 4 mg/kg ip daily vs PBS/vehicle. In kind it is in vivo. The procedure: (§1) FIG. 3A. MCF-7 xenograft with 3×10^6 cells in the 2nd mammary fat pad on day 0. HBB (4 mg/kg ip daily) (ν) or PBS (ρ) treatment began on day 1. * indicates P<0.05. FIG. 3B. MDAMB-231 xenograft with 1×10^6 cells in the 2nd mammary fat pad on day 0. HBB (4 mg/kg ip daily) (ν) or PBS (ρ) treatment began on day 1. N=20 mice per arm for each study; error bars are SEM.
MCF-7 cells were implanted in the mammary fat pad of 4-5 week mice and treatment was initiated when tumor size was ≥15 mm^3 by 2 sequential measurements with randomized assignment to the treatment arms.
(§2) FIG. 44A. Nude mice were inoculated with 3×10^6 MCF-7 cells and treated with vehicle (Δ) HBB at the MTD (4 mg/kg/day ip) (▪). (* indicates P<0.05). Error bars are SEM. […] The dose limiting toxicity was weight loss. At the MTD there was a well-tolerated 4% reduction of weight at 42 days (P<0.0001; data not shown). FIG. 44B. Nude mice were inoculated with 1×10^6MDA-MB-231 cells and treated with HBB at the MTD (4 mg/kg/day ip).

Series [5] deals with MDA-MB-231 xenograft. Description: MDA-MB-231 xenograft in nude mice. The format is in vivo. The conditions noted are these: HBB 4 mg/kg ip daily vs PBS/vehicle. The procedure:
as §1, §2

A short description of series [6]: Tolerability in xenograft mice (MTD, weight). The conditions noted are these: mouse, in vivo. The text has this:
[…]. (* indicates P<0.05). Error bars are SEM. […] The dose limiting toxicity was weight loss. At the MTD there was a well-tolerated 4% reduction of weight at 42 days (P<0.0001; data not shown). […].

Series [7] deals with MCF7 line. Description: 14,15-EET protection against biguanide growth inhibition, MTT, MCF7. Conditions: MCF-7, exogenous (±)-14,15-EET (1 uM). The format is cell-based. On the procedure: Cells were plated in complete media in the presence of serum (10% FBS) and cultured at 37° C. with 5% CO2 and treated with biguanides for 24 hours in the presence or absence of 1 uM 14,15-EET. Growth was then measured at 24 hour by MTT assay.

Series [8] relates to MCF7. As to the kind of experiment: ROS production, DCFDA flow cytometry, MCF7. In kind it is cell-based. Conditions: MCF7, 20 uM HBB. On the procedure:
(§3) FIG. 33 illustrates that HBB induces reactive oxygen species (ROS) production in MCF7 and MDA-MB-231 lines. Cells in log phase growth in complete media were trypsinized and resuspended in complete media containing 20 uM DCFDA. After incubation at 37° C. for 30 minutes, cells were treated with 20 uM HBB or DMSO for 2.5 hours and analyzed by flow cytometer, monitoring fluorescence at 525 nm. Results are represented as histograms of cell count vs fluorescence intensity.
Background: Flow cytometry measures light scatter and fluorescence of single cells or particles in a stream.

Series [9] deals with MDA-MB-231. Description: ROS production, DCFDA flow cytometry, MDA-MB-231. The conditions noted are these: MDA-MB-231, 20 uM HBB. In kind it is cell-based. On the procedure: as §3
The subject of series [10] is MDA-MB-231. As to the kind of experiment: Cell cycle analysis by flow cytometry, MDA-MB-231. In kind it is cell-based. Conditions: MDA-MB-231, HBB 20 uM, 6 hours. On the procedure: Cells in log phase growth treated with HBB (20 uM) or DMSO for 6 hours were trypsinized and fixed in 70% ethanol at 4° C. overnight. The cells were washed with cold PBS and resuspended in Nicoletti buffer (50 μg/ml propidium iodide, 0.1% Triton X-100, 0.1% sodium citrate, pH 7.4, and 1 mg/ml RNase). The samples were then analyzed by flow cytometry (BD Biosciences), and data were analyzed using FlowJo software (Tree Star). Representative profile are shown.

In series [11] the test system is MCF-7. As to the kind of experiment: HBB plus paclitaxel combination, MTT, Chou-Talalay analysis. In kind it is cell-based. Conditions: MCF-7, HBB vs paclitaxel = 800:1, 24 hours. The procedure:
Cells were seeded into 96-well plates at 3,000 cells/well and grown over night. The cells were then treated with different doses of HBB, paclitaxel and combination of the two agents at a constant ratio (HBB vs paclitaxel=800:1). The treatments were conducted for each condition in quadruplicate. […] Combined dose-response curves were fitted to Chou-Talalay lines, and Chou-Talalay combination indices (CIs) were calculated for each fraction affected (Fa) using the equation CI=(D1/Dx1)+(D2/Dx2)+(D1)(D2)/[(Dx1)(Dx2)], where Dx1 and Dx2 are the HBB and paclitaxel doses, respectively, that are required for achieving a particular Fa, and D1 and D2 are the doses of the two agents (combined treatment) required for achieving the same Fa. For each Fa, CI values of 0.8 and 1.2 are cutoffs for synergy and antagonism, respectively (See FIG. 42).

The subject of series [12] is CD31. As to the kind of experiment: Angiogenesis by CD31 staining, MDA-MB-231 xenograft tumors. The format is in vivo, mice. Conditions: MDA-MB-231 model, HBB 4 mg/kg/day ip vs PBS. The procedure: Xenogaft tumors from the MCF-7 and MDA-MB-231 models were tested for inhibition of angiogenesis by HBB using CD31 staining.
The samples were cryosectioned at 6 um and fixed with chilled 100% acetone for 10 minutes. Samples were blocked with 3% donkey serum in PBS for 30 minutes at 37 C.
The antibody used to stain CD-31 was from BD Pharmingen PE Rat anti Mouse CD31, catalog number 553373. It was used at a dilution of 1:50 in blocking buffer for 1 hour at 37 C.
The samples were then stained for 10 minutes with DAPI at a concentration of 1:2000, from Life Technologies, catalog number D1306.
Each sample was imaged in 4-5 areas. There were 3 samples per condition, PBS vs HBB.

As usually defined, the IC50 is the concentration needed to halve the response being measured. Low values mean greater potency, high ones weaker potency. One may read the MTD as the largest dose that counted as tolerated. In turn, `CCCCCCNC(=N)NC(=N)NCc1ccccc1` [HBB, N1-hexyl-N5-benzyl biguanide] gave an IC50 in [1] of 22.5 µM. Moreover, the “AMPK phosphorylation relative to control” value in [2] (MCF7, 6 hours, metformin, buformin, phenformin 1 mM, HBB 20 uM) is listed as “more potently activates AMPK; also recorded: increased phosphorylation of AMPK”. In addition, in series [2] (vs metformin), the “fold more potent than metformin, activation of AMPK phosphorylation” value is on record as about 50 fold. The “STAT3 phosphorylation relative to control” value in [3] (MCF7, 6 hours, HBB 20 uM, metformin 10 uM) is on record as “decreased phosphorylation of STAT3”. Further, in [3] (vs metformin), the “fold more potent than metformin, inhibition of Stat3 phosphorylation” value was about 50 fold. Besides, the “tumor growth, MCF-7 xenograft” value in [4] was “significant reduction in early engraftment/tumor growth; also recorded: only in the MCF-7 model; also recorded: inhibits the ER+ MCF-7”. Further, the “tumor growth, MDA-MB-231 xenograft” value in series [5] was “tumor growth wasn't inhibited; also recorded: no significant difference between the HBB and vehicle growth curves”. In addition, the dose limiting toxicity result in [6] was “weight loss”. Besides, the MTD at 42 days in [6] (nude, ip daily, read-out: maximum tolerated dose (MTD)) is 4 mg/kg. Moreover, the “rescue of MCF-7 growth by 14,15-EET in the presence of the biguanide” value in series [7] is “partially restores growth; also recorded: partial rescue”. In addition, the “ROS production relative to DMSO” value in series [8] and in series [9] was “induced significant ROS production” each time. For the same molecule, the cell cycle arrest entry in series [10] is “induces G0/G1 and G2/M cell cycle arrest”. Further, in series [11], the “combination index plot, HBB with Taxol” value is reported as “synergy”. In addition, the “angiogenesis (CD31 staining)” value in [12] was “inhibited angiogenesis in both models”.
